Test results as given in patent publication US9676789B2, “Aminated derivative of homoharringtonine, preparation method therefor, and application thereof” (HANGZHOU BENSHENG PHARMACEUTICAL CO., LTD., priority 2011, dated 2017).

Experiments:
[1] = test system: H9 (acute lymphoblastic leukemia, ALL); test: MTT leukemia cell growth inhibition, 72 h; assay type: cell-based, human; settings: H9, 72 h
Procedure, shortened: (§1)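 Using 6000 leukemia cells per well in 1640 medium supplemented with 10% fetal bovine serum, homoharringtonine derivatives at different concentrations were applied for 72 h, then viability was assessed by MTT.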

[2] = test system: Jurkat (acute lymphoblastic leukemia, ALL); test: MTT leukemia cell growth inhibition, 72 h; assay type: cell-based, human
Procedure, shortened: as §1

[3] = test system: K562/adr (drug-resistant, chronic myeloid leukemia, CML); test: MTT leukemia cell growth inhibition, 72 h; assay type: cell-based, human; settings: K562/adr
Procedure, shortened: as §1

[4] = test system: Kasumi-1 (acute myeloid leukemia M2 type, AML-M2); test: MTT leukemia cell growth inhibition, 72 h; assay type: cell-based, human; settings: Kasumi-1, 72 h
Procedure, shortened: as §1

[5] = test system: NB4 (acute promyelocytic leukemia, AML); test: MTT leukemia cell growth inhibition, 72 h; assay type: cell-based, human; settings: NB4, 72 h
Procedure, shortened: as §1

[6] = test system: RPMI8226 (multiple myeloma); test: MTT multiple myeloma cell growth inhibition, 72 h; assay type: cell-based, human
Procedure, shortened: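 RPMI8226 cells at 6000 per well in 1640 medium with 10% fetal bovine serum, exposed to homoharringtonine derivatives at various concentrations. Incubation 72 h at 37° C, 5% CO2; viable cells read by MTT.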

A549 (human lung cancer) = test: MTT solid tumor cell growth inhibition, 72 h; assay type: cell-based; settings: A549, 72 h
Procedure, shortened: (§2)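 Percent cell viability comes from the MTT method, normalised to untreated control wells as 100%. Compounds at varying concentrations were left on the cells for 72 h after a 24 h settling period, with 4000 cells seeded per well in 10% FBS-supplemented DMEM high glucose.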

[7] = test system: Becap37 (human breast cancer cell); test: MTT solid tumor cell growth inhibition, 72 h; assay type: cell-based; settings: Becap37, 72 h
Procedure, shortened: as §2

[8] = test system: Hela (human cervical cancer cell); test: MTT solid tumor cell growth inhibition, 72 h; assay type: cell-based; settings: Hela
Procedure, shortened: as §2

[9] = test system: Hep-2 (human hepatocellular carcinoma); test: MTT solid tumor cell growth inhibition, 72 h; assay type: cell-based; settings: Hep2, 72 h
Procedure, shortened: as §2

[10] = test system: Huh7 (human liver cancer cell); test: MTT solid tumor cell growth inhibition, 72 h; assay type: cell-based; settings: Huh7, 72 h
Procedure, shortened: as §2

[11] = test system: MGC 803 (human gastric cancer cell); test: MTT solid tumor cell growth inhibition, 72 h; assay type: cell-based; settings: MGC 803, 72 h
Procedure, shortened: as §2

[12] = test system: RKO (human colon adenocarcinoma cell); test: MTT solid tumor cell growth inhibition, 72 h; assay type: cell-based
Procedure, shortened: as §2

[13] = test system: CNE (nasopharyngeal carcinoma cell); test: MTT solid tumor cell growth inhibition, 72 h; assay type: cell-based, human
Procedure, shortened: as §2

[14] = test system: CaES-17 (esophageal cancer cell); test: MTT solid tumor cell growth inhibition, 72 h; assay type: cell-based, human; settings: CaES-17, 72 h
Procedure, shortened: as §2

MG63 (osteosarcoma) = test: MTT solid tumor cell growth inhibition, 72 h; assay type: cell-based, human; settings: MG 63, 72 h
Procedure, shortened: as §2

[15] = test system: PANC-1 (pancreatic cancer); test: MTT solid tumor cell growth inhibition, 72 h; assay type: cell-based, human; settings: PANC-1, 72 h
Procedure, shortened: as §2

PC-3 (prostate cancer) = test: MTT solid tumor cell growth inhibition, 72 h; assay type: cell-based, human; settings: PC-3, 72 h
Procedure, shortened: as §2

[16] = test system: SK-OV-3 (ovarian cancer cell); test: MTT solid tumor cell growth inhibition, 72 h; assay type: cell-based, human; settings: SK-OV-3, 72 h
Procedure, shortened: as §2

[17] = test system: U87 MG (malignant glioma cell); test: MTT solid tumor cell growth inhibition, 72 h; assay type: cell-based, human
Procedure, shortened: as §2

[18] = test system: K562/adr, NB4, Kasumi-1 and H9; test: Anti-leukemia activity, summary over cell lines; assay type: cell-based, human; settings: result in words, summary of Table 1
From the text: Leukemia cell lines: K562/adr (drug-resistant, chronic myeloid leukemia, CML), NB4 (acute promyelocytic leukemia, AML), Kasumi-1 (acute myeloid leukemia M2 type, AML-M2), Jurkat (acute lymphoblastic leukemia, ALL), all of which are donated by Cancer Research Institute of Zhejiang University, China; and H9 (acute lymphoblastic leukemia, ALL), which is purchased from China Center for Type Culture Collection.
Obtaining 6000 well-growing leukemia cells and inoculating them into wells of a 96-well cell culture plate. The culture medium is the 1640 cell culture medium containing 10% fetal bovine serum. After adding the homoharringtonine derivatives of different concentrations and mixing uniformly, placing the plate in a carbon dioxide cell incubator (5% CO2) at 37° C. and incubating for 72 hours. Then the viable cell concentration is determined by the MTT method. In this experiment, the cell viability in control group (not treated with any compound) is set as 100%.

[19] = test system: A549, PANC-1, Becap37, MG63, Huh7, RKO, Hela, CaES-17, CNE, Hep-2, PC-3 and SK-OV-3; test: Anti-human solid tumor effect, summary over cell lines; assay type: cell-based; settings: result in words, summary of Table 2
Protocol: Human solid tumor cell lines: Hep-2 ([…]), A549 (human lung cancer), CaES-17 (esophageal cancer cell), PC-3 (prostate cancer), CNE (nasopharyngeal carcinoma cell), and SK-OV-3 (ovarian cancer cell), all of which are purchased from China Center For Type Culture Collection; RKO (human colon adenocarcinoma cell), MGC 803 (human gastric cancer cell), MG63 (osteosarcoma) and U87 MG (malignant glioma cell), all of which are purchased from Fuxiang Bio-tech Co. Ltd., Shanghai, China; PANC-1 (pancreatic cancer), Huh7 (human liver cancer cell), Becap37 (human breast cancer cell), and Hela (human cervical cancer cell), all of which are donated by Cancer Research Institute of Zhejiang University, China.
Obtaining 4000 well-growing human solid tumor cells and inoculating them into wells of a 96-well cell culture plate. The culture medium is DMEM High Glucose cell culture medium containing 10% fetal bovine serum. The plate is placed in a carbon dioxide cell incubator (5% CO2) at 37° C. and incubating for 24 hours. After adding the homoharringtonine derivatives of different concentration and mixing uniformly, the plate is placed in a carbon dioxide cell incubator (5% CO2) at 37° C. and incubating for 72 hours. Then the viable cell concentration is determined by the MTT method and the cell viability (%) after drug treatment is calculated. In this experiment, the cell viability of control group (not treated with any compound) is set as 100%.

O-3-[(2R)-2,6-dihydroxy-2-(2′-pyrrolyl-2′-oxoethyl)-6-methylheptanoyl]cephalotaxine [BS-HH-012]
IC50 [1]: 0.27 µg/mL | IC90 [1]: 3.49 µg/mL | IC50 [2]: 0.058 µg/mL | IC90 [2]: 16 µg/mL | IC50 [3]: 0.65 µg/mL | IC90 [3]: 9.87 µg/mL | IC50 [4]: 0.038 µg/mL | IC90 [4]: 0.14 µg/mL | IC50 [5]: 0.08 µg/mL | IC90 [5]: 0.23 µg/mL | IC50 ([6]; RPMI8226, 72 h): 0.057 µg/mL | IC90 ([6]; RPMI8226, 72 h): 0.36 µg/mL | anti-RPMI8226 (multiple myeloma) effect ([6]; result in words, summary of Table 2): strong | IC50 (A549 (human lung cancer)): 0.45 µg/mL | IC90 (A549 (human lung cancer)): >16 µg/mL | IC50 [7]: 0.26 µg/mL | IC90 [7]: 16 µg/mL | IC50 [8]: 0.35 µg/mL | IC90 [8]: >16 µg/mL | IC50 [9]: 0.15 µg/mL | IC90 [9]: >16 µg/mL | IC50 [10]: 0.2 µg/mL | IC90 [10]: >16 µg/mL | IC50 [11]: 0.24 µg/mL | IC90 [11]: 6.84 µg/mL | IC50 [12]: 0.11 µg/mL | IC90 [12]: 0.43 µg/mL | IC50 [13]: 0.13 µg/mL | IC90 [13]: >16 µg/mL | IC50 [14]: 0.43 µg/mL | IC90 [14]: >16 µg/mL | IC50 (MG63 (osteosarcoma)): 0.18 µg/mL | IC90 (MG63 (osteosarcoma)): >16 µg/mL | IC50 [15]: 0.26 µg/mL | IC90 [15]: >16 µg/mL | IC50 (PC-3 (prostate cancer)): 0.32 µg/mL | IC90 (PC-3 (prostate cancer)): >16 µg/mL | IC50 [16]: 0.41 µg/mL | IC90 [16]: >16 µg/mL | IC50 [17]: 0.24 µg/mL | IC90 [17]: 1.13 µg/mL | anti-K562/adr, anti-NB4, anti-Kasumi-1 and anti-H9 activity [18]: strong | anti-A549, anti-PANC-1, anti-Becap37, anti-MG63, anti-Huh7, anti-RKO, anti-Hela, anti-CaES-17, anti-CNE, anti-Hep-2, anti-PC-3 and anti-SK-OV-3 effect [19]: strong
